Assay [1] relates to rabbits treated with cyclophosphamide. As to conditions: rabbit, in vivo; cited from earlier work.
In assay [2] the test system is Balb/C female mice. Briefly: Hematopoietic recovery after cyclophosphamide in mice (spleen weight, blood cell counts). It counts as in vivo, mouse. How it is done: Twenty-four hours later and each day thereafter for a total of 6 days, mice were given a 0.4 ml i.p. injection of either physiological saline (controls), guanine (5 μmoles/mouse/day), or guanosine (5 μmoles/mouse/day). On day 7 all 10 mice in each of the three groups were bled, and then sacrificed by cervical dislocation. Spleens were removed and weighed, and complete blood cell counts performed.
Twenty-four hours later and each day thereafter for a total of 6 days, mice were given a 0.4 ml i.p injection of either physiological saline (controls), Tween 80 (0.2%), guanosine (5 μmoles/mouse/day in 0.2% Tween 80), or 2.5 μmoles per mouse per day of one of the following acylated derivatives of guanosine in 0.2% Tween 80: triacetylguanosine, octanoylguanosine, lauroylguanosine, or palmitoylguanosine. On day 7 following CP administration all 10 animals from each of the 7 groups were bled, and then sacrificed by cervical dislocation. Spleens were removed and weighed, and complete blood counts performed.
Twenty-four hours later treatment was begun. Mice were given a 0.4 ml i.p. injection of either physiological saline (controls), Tween 80 (0.2%), or palmitoylguanosine (5 μmoles/mouse/day in 0.2% Tween 80). The timing of the treatments was varied within the groups. The control group was given saline on days 1-6. The mice receiving Tween 80 were treated either on days 1-4, 4-6 or 1-6. Palmitoylguanosine-treated mice were treated either on days 1-2, 1-4, 3-5, 4-6 or 1-6. If a group of mice received no Tween 80 or palmitoylguanosine on a given day, saline was administered by i.p. injection. Thus, there were 9 groups of 9 animals in all. On day 7 following CP administration all of the animals were bled and then sacrificed by cervical dislocation. Spleens were removed and weighed, and complete blood cell counts performed.
Twenty-four hours later and each day thereafter for a total of 6 days, mice were given a 0.4 ml i.p. injection of either physiological saline (controls), Tween 80 (0.5%), or one of three different doses of octanoylguanosine (0.5, 2.5, or 5 μmoles/mouse/day in 0.5% Tween 80). On day 7 following CP administration all 9 animals from each of the […] were bled and then sacrificed by cervical dislocation. Spleens were removed and weighed, and complete blood cell counts performed.
Twenty-four hours later and each day thereafter for a total of 6 days, mice were given a 0.4 ml i.p. injection of either physiological saline (controls), Tween 80 (0.5%), or octanoylguanosine (5.0 μmoles/mouse/day in 0.5% Tween 80). On day 7 following CP administration all 10 animals from each of the 3 groups were bled and then sacrificed by cervical dislocation. Spleens were removed, weighed, and fixed in 10% formalin for later histological examination. Complete blood cell counts were performed on the collected blood.
Twenty-four hours later and each day thereafter for a total of 6 days, mice were given a 0.4 ml i.p. injection of either physiological saline (controls), benzoylguanosine (2.5 μmoles/mouse/day in 0.2% Tween 80), or palmitoylguanosine (2.5 μmoles/mouse/day in 0.2% Tween 80). On days 7 and 10 following CP administration 8 animals from each of the 3 groups were bled and then were sacrificed by cervical dislocation. Spleens were removed and weighed, and complete blood cell counts performed.
Twenty four hours later and each day thereafter for a total of 4 or 6 days, mice were given a 0.4 ml i.p. injection of either physiological saline (controls), palmitoyldeoxyinosine (2.5 μmoles/mouse), or palmitoyl-xanthosine (2.5 μmoles/mouse). On days 5 and 7 following CP administration 6 of the 12 animals in each of the 3 groups were bled and then sacrificed by cervical dislocation. Spleens were removed and weighed, and complete blood cell counts performed.

For assay [3], the system named is Balb/C female mice. Described as above. Type of assay: in vivo, mouse. The source holds these as a separate data set.
Assay [4] relates to bone marrow cells in culture. The following applies: sub-optimal amounts of colony stimulating factors; cited from earlier work.

As to polyguanosine monophosphate, the leukocyte formation result in assay [1] is recorded as “failed to stimulate”.
“polyoxyethylene sorbitan mono-oleate [Tween 80]”: the spleen weight entry was “No significant difference” in the assay on Balb/C female mice [2] (Ex 38: day 7 after CP, guanosine 5, acyl derivatives 2.5 μmoles/mouse/day in 0.2% Tween 80 i.p. 6 days, Tween 80 0.2%); “elevated” in the assay on Balb/C female mice [2] (Ex 41: day 7 after CP, Tween 80 0.2% on days 4-6 or 1-6 (not days 1-4), vs saline); “modest increase” in the assay on Balb/C female mice [3] (Ex 46: day 7 after CP, Tween 80 0.5% alone vs saline). In addition, the lymphocyte counts entry with Balb/C female mice [2] (Ex 41: day 7 after CP, Tween 80 0.2% for any period) is “not affected”. Moreover, in the assay with Balb/C female mice [2] (Ex 45: day 7 after CP, Tween 80 0.5%), the mean spleen weight entry is “some increase”. Besides, in the assay with Balb/C female mice [3] (Ex 58: day 7 after CP, 1.0% Tween alone i.p. 6 days, vs saline), the neutrophil counts result was “significantly different from controls”. Besides, the “concentration of maximum activity” value in assay [4] is 10 ng/mL.
